Assay results taken from patent US20260250337A1, “HYBRID ANTIMICROBIAL PEPTIDES” (UNIVERSIDADE FEDERAL DO ABC, priority 2023, published 2026).
Entries after “also recorded” stand apart in the source; their conditions may differ. No end group written: not given here.

How the values were obtained:
[1] = tested on: M. luteus A270; assay: Liquid growth inhibition assay, MIC; type: cell-based, Micrococcus luteus; settings: 37° C., 18 h
Experimental: (§1) Initially, the antimicrobial activity was determined by liquid growth inhibition assays, as previously described by Pedron et al.^62. Briefly, Peptone Broth and Potato Dextrose Broth (Invitrogen) were used for antibacterial and antifungal assays, respectively. Two-fold serial dilutions of peptides (0.09-50 μmol L^−1) and microorganisms (Serratia marcescens ATCC 4112, Enterobacter cloacae β-12, Micrococcus luteus A270, Bacillus megaterium ATCC 10778, Bacillus subtilis ATCC 6633, Candida albicans MDM8, and Candida tropicalis IOC 4560) were incubated at 37° C. for 18 h (for bacteria) or 24 h (for fungi), and microbial growth was assessed by absorbance measurements at 595 nm. Experiments were performed in three biological repeats.

[2] = tested on: S. epidermidis ATCC 12228; assay: Liquid growth inhibition assay, MIC; type: cell-based; settings: 37° C., 18 h
[3] = tested on: B. megaterium ATCC 10778; assay: Liquid growth inhibition assay, MIC; type: cell-based, Bacillus megaterium; settings: 37° C., 18 h
Experimental: as §1

[4] = tested on: S. marcescens ATCC 4112; assay: Liquid growth inhibition assay, MIC; type: cell-based, Serratia marcescens; settings: 37° C., 18 h
Experimental: as §1

[5] = tested on: E. cloacae β-12; assay: Liquid growth inhibition assay, MIC; type: cell-based, Enterobacter cloacae; settings: 37° C., 18 h
Experimental: as §1

[6] = tested on: C. albicans MDM8; assay: Liquid growth inhibition assay, MIC (antifungal); type: cell-based, Candida albicans; settings: 37° C., 24 h
Experimental: as §1

[7] = tested on: C. tropicalis IOC 4560; assay: Liquid growth inhibition assay, MIC (antifungal); type: cell-based, Candida tropicalis; settings: 37° C., 24 h
Experimental: as §1

[8] = tested on: human erythrocytes; assay: Hemolytic activity assay; type: cell-based; settings: for hemolytic activity: 0.1 to 100 μmol L^−1; for MHC / Hemolytic activity, concentration of peptide needed to kill 10% of red blood cells: human erythrocytes, 1 h; for MHC: room temperature, concentration with approximately 0% of hemolytic activity
Experimental: Method. Assays against freshly collected human erythrocytes were performed following protocols described by Pedron et al. 62. Briefly, peptide aliquots at concentrations ranging from 0.1 to 100 μmol L−1 were incubated with a suspension of erythrocytes at room temperature for 1 h. The samples were then centrifuged, and the absorbance of the supernatant was measured at 405 nm. The MHC (maximal non-hemolytic concentration) was determined as the maximal concentration at which 100% of the erythrocytes were viable. The surfactant SDS and PBS buffer were used as positive88, 89 and negative controls, respectively. Sodium heparin was used as an anticoagulant when collecting human blood. Three biological repeats were performed.

[9] = Resistance to degradation in fetal bovine serum; type: in vitro ADME; settings: for remaining at 0.5 h: read-out: remaining peptide, 30 min; for remaining at 1 h: read-out: remaining peptide, 1 h; for remaining at 2 h: read-out: remaining peptide, 2 h
Experimental: The resistance to proteolytic degradation of the hybrid peptides was assessed by exposing them for 6 h to serum peptidases in a fetal bovine serum solution^68, 69 (FIG. 5a and Table S4). The peptide degradation kinetics were calculated by integrating the peak area of the peak in relation to the peptide at the beginning of the experiment (time=0) and comparing it to the integrated peak area relative to the peptides after exposure to the enzymes at time points: 0.5, 1, 2, 4, and 6 h (FIG. 5a and Table S4). […] However, AV was resistant to degradation against proteases, with almost 40% peptide content remaining after 4 h of exposure (FIG. 5a and Table S4). […] VP was almost entirely degraded after 30 min (22% of peptide remaining). […] D-amino acid substitutions have been used as alternatives to prevent the degradation of AMPs. For example, Qiu et. al. described a protonectin analog with a D-Lys residue in position 10 as an alternative to protonectin; this analog is not degraded and has higher antimicrobial activity against bacteria and fungi than the original peptide.
Methods. Stability assays were performed following the protocol described by Torres et al.^71. Briefly, a peptide solution was added to GIBCO fetal bovine serum diluted to 25% in water and kept at 37° C. The degradation kinetics were monitored by liquid chromatography and the percentage of peptide remaining was calculated by integrating the peptide peak area. The experiments were performed as three independent replicates, and aliquots were taken at 0, 0.5, 1, 2, 4, and 6 h.

[10] = tested on: bacterial strains; assay: Antimicrobial activity over the panel of strains; type: cell-based; settings: range over strains tested
Experimental: as §1
(§2) Method. The minimal inhibitory concentration (MIC) against the ESKAPE pathogens was determined using the broth microdilution method^81, 82 in Luria-Bertani (LB) medium. The MIC value was defined as the lowest concentration of peptide at which no microbial growth was observed. A. baumannii ATCC19606, E. coli ATCC11775, E. coli AIC221, E. coli AIC222, K. pneumoniae ATCC13883, S. aureus ATCC12600 P. aeruginosa PAO1, and P. aeruginosa PA14 were incubated on agar plates, and after 24 h, three isolated colonies were inoculated to 5 mL of Luria-Bertani (LB) broth and maintained at 37° C. overnight with shaking. Peptides were then added to 96-well polystyrene microtiter plates at concentrations ranging from 0 to 128 μmol L^−1, and 5×10^5 CFU mL^−1 of each bacterium was inoculated in each well. The plates were incubated at 37° C. for 24 h. Bacterial growth was measured using a microplate reader at 610 nm. Three independent replicates were performed.

[11] = tested on: A. baumannii ATCC19606; assay: Broth microdilution MIC, ESKAPE pathogens; type: cell-based; settings: LB, 37° C., 24 h
Experimental: as §2

[12] = tested on: E. coli AIC221; assay: Broth microdilution MIC, ESKAPE pathogens; type: cell-based; settings: LB, 37° C., 24 h
Experimental: as §2

[13] = tested on: E. coli AIC222; assay: Broth microdilution MIC, ESKAPE pathogens; type: cell-based; settings: LB, 37° C., 24 h
Experimental: as §2

[14] = tested on: E. coli ATCC11775; assay: Broth microdilution MIC, ESKAPE pathogens; type: cell-based; settings: LB, 37° C., 24 h
Experimental: as §2

[15] = tested on: K. pneumoniae ATCC13883; assay: Broth microdilution MIC, ESKAPE pathogens; type: cell-based; settings: LB, 37° C., 24 h
Experimental: as §2

[16] = tested on: P. aeruginosa PA14; assay: Broth microdilution MIC, ESKAPE pathogens; type: cell-based; settings: LB, 37° C., 24 h
Experimental: as §2

[17] = tested on: P. aeruginosa PAO1; assay: Broth microdilution MIC, ESKAPE pathogens; type: cell-based; settings: LB, 37° C., 24 h
Experimental: as §2

[18] = tested on: S. aureus ATCC12600; assay: Broth microdilution MIC, ESKAPE pathogens; type: cell-based; settings: LB, 37° C., 24 h
Experimental: as §2

[19] = tested on: MCF-7 human breast cancer cells; assay: Anticancer activity, MTT assay; type: cell-based; settings: MTT
Experimental: The anticancer activity assays were performed using MCF-10A human breast epithelial cells and MCF-7 mammary cancer cells as previously described by Pedron et al. 86. Briefly, the day before treatment, the cells were incubated at 37° C. and 5% CO2 for 24 h. The cells were treated with peptides ranging from 12.5 to 100 μmol L^−1 (MCF10-A cells) and 0.8 to 100 μmol L^−1 (MCF-7 cells) for 4 h and 24 h at 37° C., and cell viability was measured using 3-(4,5-Dimethylthiazol-2-yl)-2,5-diphenyltetrazolium bromide (MTT) assays 87. Three independent replicates were performed in each case.

[20] = bovine, fetal bovine serum, 25% in water, fetal bovine serum 25% in water, 37° C., 30 min
[21] = bovine, fetal bovine serum, 25% in water, fetal bovine serum 25% in water, 37° C.

Substance | MIC M. luteus A270 [1] | MIC S. epidermidis ATCC 12228 [2] | MIC B. megaterium ATCC 10778 [3] | MIC S. marcescens ATCC 4112 [4] | MIC E. cloacae β-12 [5] | MIC C. albicans MDM8 [6] | MIC C. tropicalis IOC 4560 [7] | hemolytic activity [8] | MHC [8] | remaining at 0.5 h [9, 20] | resistance to degradation ([9]; fetal bovine serum) | Hemolytic activity, concentration of peptide needed to kill 10% of red blood cells [8] | MIC A. baumannii ATCC19606 [11] | MIC E. coli AIC221 [12] | MIC E. coli AIC222 [13] | MIC E. coli ATCC11775 [14] | MIC K. pneumoniae ATCC13883 [15] | MIC P. aeruginosa PA14 [16] | MIC P. aeruginosa PAO1 [17] | MIC S. aureus ATCC12600 [18] | also measured
FLGSLWRKAGTVF-NH2 [VD] | 25 µM | >50 µM | 6.3 µM | 12.5 µM | >50 µM | 25 µM | 6.3 µM | minimal hemolytic activity; also recorded: no hemolytic activity was detected | >100 µmol/L | ~10% | the greatest resistance to proteolytic degradation |  |  |  |  |  |  |  |  |  | remaining at 6 h ([9]; bovine, fetal bovine serum, 25% in water, fetal bovine serum 25% in water, 37° C., 6 h, read-out: remaining peptide, 6 h): ~50%; MIC range of the peptide over the strains [10]: 6.3 to 25 µM
FLGTLWGGAKGVF-NH2 [VP] | >50 µM | >50 µM | >50 µM | >50 µM | >50 µM | >50 µM | >50 µM | minimal hemolytic activity | >100 µmol/L | 22% |  | 100 µmol/L | 128 µM | 128 µM | 128 µM | 128 µM | 128 µM | 128 µM | 128 µM | 128 µM | remaining at 1 h [9, 21]: < 20%; remaining at 2 h [9, 21]: < 10%; remaining peptide, 30 min ([9]; fetal bovine serum 25% in water, 37° C., 30 min): ~20%
H-GLLKRIKTLL-NH2 [Anoplin, reference compound] | 1.6 µM | 6.3 µM | 0.8 µM | 6.3 µM | 3.1 µM | 1.6 µM | 1.6 µM |  | 50 µmol/L | ~20% |  | 50 µmol/L |  |  |  |  |  |  |  |  | remaining at 1 h [9, 21]: ~20%; remaining at 2 h [9, 21]: ~10%
ILGTILGLLKGL-NH2 [Protonectin, reference compound] | 3.1 µM | 25 µM | 3.1 µM | 6.3 µM | 25 µM | 12.5 µM | 12.5 µM |  | 12.5 µmol/L |  | quickly degraded | 12.5 µmol/L | 16 µM | 16 µM | 8 µM | 16 µM | 64 µM | 128 µM | 128 µM | 8 µM | MCF-7 4 h LD50 ([19]; MCF-7, 4 h): 25 µmol/L; MCF-7 24 h LD50 ([19]; MCF-7, 24 h): 25 µmol/L
